The source of these data is EP2103614A1, “Substituted imidazopyrimidine, imidazopyrazine and imidazopyridazine derivatives as melanocortin-4 receptor modulators” (Santhera Pharmaceuticals (Schweiz) AG, priority 2008, dated 2009).

The structures appear in SMILES notation. Where two headings read alike, the source gives them in different places.

The target in test [1] is T1, hMC-4R (Homo sapiens, UniProt P32245).
T1 construct: expressed in transfected cells; host or cells: HEK293
The test is described as follows: Functional assay (membrane based cAMP fluorescence polarization, agonistic activity). To be noted: cAMP produced compared to stimulation with NDP-alpha-MSH; read-out: % activation functional assay. The test is classed as biochemical. As to the method: Agonistic activity of human melanocortin receptors is determined in a homogeneous membrane based assay.
Membrane preparations from HEK293 cells expressing the human melanocortin receptors are added. After a short preincubation period, an appropriate amount of ATP, GTP and the cAMP antibody is added and the plate is further incubated before the fluorescence labeled cAMP conjugate is dispensed. The plate is incubated for 2 h at 4°C before it is read on a fluorescence polarization microplate reader. The amount of cAMP produced as a response to a test compound is compared to the production of cAMP resulting from stimulation with NDP-alpha-MSH.
(In general: Fluorescence polarisation rises when a labelled molecule tumbles more slowly, as on binding a larger partner.)

Test [2] addresses T1, hMC-4R. Put plainly: Membrane binding assay (fluorescence polarization, competition with fluorescence labeled NDP-alpha-MSH).
Setting [3] is: HEK293 cell membrane preparations expressing human melanocortin receptors, 5 h at room temperature, read-out: hMC-4R binding assay IC50/µM.

T1 sequence (P32245 whole entry): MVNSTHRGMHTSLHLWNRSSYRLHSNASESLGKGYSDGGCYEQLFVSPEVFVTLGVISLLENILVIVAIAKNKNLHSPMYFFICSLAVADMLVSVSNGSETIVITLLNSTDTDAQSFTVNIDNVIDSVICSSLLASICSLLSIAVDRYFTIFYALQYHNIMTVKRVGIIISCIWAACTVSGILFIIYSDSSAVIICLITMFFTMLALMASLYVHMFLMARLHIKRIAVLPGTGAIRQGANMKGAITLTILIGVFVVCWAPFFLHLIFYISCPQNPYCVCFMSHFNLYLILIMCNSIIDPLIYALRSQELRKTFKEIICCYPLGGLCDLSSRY

For the compound `CC(C)CCN(CCC(C)C)C(=O)c1cn2c(CCCN(C)C)c(-c3ccc(C#N)cc3)nc2cn1` [Example 8], at hMC-4R [1], the Emax amounted to 0%. Further, on hMC-4R [2] (setting [3]), the IC50 was 0.19 µM.

Consider `CC(C)CCN(CCC(C)C)C(=O)c1ccc2nc(-c3ccc4c(c3)OCCO4)c(CCCN3CCCCC3)n2n1` [Example 3], for which the Emax on hMC-4R [1] is 0%. In addition, the IC50 at hMC-4R [2] (setting [3]) is 0.12 µM.

With `COc1ccc(Nc2nc3ccc(C(=O)N(CCC(C)C)CCC(C)C)nn3c2CCCN)cc1` [Example 1], the Emax on hMC-4R [1] is 0%. On hMC-4R [2], this compound yielded an IC50 of 0.49 µM.

For `CC(C)CCN(CCC(C)C)C(=O)c1cn2c(CCCN3CCCC3)c(-c3ccc(C#N)cc3)nc2cn1` [Example 7], at hMC-4R [1], the Emax is 0%. At hMC-4R [2], the IC50 came to 0.02 µM.

As for `CC(C)CCN(CCC(C)C)C(=O)c1cnc2nc(-c3ccc(C#N)cc3)c(CCCN(C)C)n2c1` [Example 6], the Emax on hMC-4R [1] worked out at 0%. The compound also returned an IC50 on hMC-4R [2] of 1 µM.

Regarding `CC(C)CCN(CCC(C)C)C(=O)c1cn2c(CCCN(C)C)c(-c3ccc(C(N)=O)cc3)nc2cn1` [Example 10], the Emax on hMC-4R [1] came to 0%. In addition, the IC50 on hMC-4R [2] was found to be 0.28 µM.

As for `CC(C)CCN(CCC(C)C)C(=O)c1cn2c(CCCN3CCCC3)c(-c3ccc(C(N)=O)cc3)nc2cn1` [Example 9], the Emax at hMC-4R [1] amounted to 0%. Besides, the IC50 on hMC-4R [2] (setting [3]) came out at 0.048 µM.

As for `CC(C)CCN(CCC(C)C)C(=O)c1ccc2nc(-c3ccc(C#N)cc3)c(CCCN3CCCC3)n2n1` [Example 4], at hMC-4R [1], the Emax amounted to 0%. Moreover, on hMC-4R [2], the IC50 is 0.3 µM.

For the compound `CC(C)CCN(CCC(C)C)C(=O)c1cnc2nc(-c3ccc(C#N)cc3)c(CCCN3CCCC3)n2c1` [Example 5], on hMC-4R [1], the Emax came out at 0%. This compound also had an IC50 at hMC-4R [2] of 0.18 µM.

Regarding `CC(C)CCN(CCC(C)C)C(=O)c1ccc2nc(-c3ccc4c(c3)OCCO4)c(CCCN)n2n1` [Example 2], the Emax on hMC-4R [1] is 0%. Further, on hMC-4R [2], the IC50 was 1.1 µM.
